Measurements as given in PMC9249674, “A small-molecule Skp1 inhibitor elicits cell death by p53-dependent mechanism” (iScience, 2022).

Columns and labels:
A549 cells = assay: Cell viability assay (Cell-Titer GLO); type: cell-based, human; conditions: Homo sapiens; A549; Lung cancer; 48 h; read-out: Anti-proliferative EC50
Experimental: The media was according to culture conditions of each individual cell line (mentioned above). After 12 hrs, compounds were added in a total volume of 5 μL of media (two-fold diluted) to each well with final concentrations from 5 nM to 30 μM. The measurements were conducted 48 hrs after seeding of the cells. Then, 25 μL of Cell-Titer GLO reagent (Promega) was added, and luminescence was measured on an EnSpire multimode plate reader (PerkinElmer), according to the manufacturer’s instructions. The estimated in vitro half-maximal inhibitory concentration (EC50) values were calculated using GraphPad Prism® v6.0 (San Diego, CA) software. The cell viability for A549 cells was also performed for 72- and 96-hrs by using the same experimental conditions as described above.

[1] = target: T1, Skp1-ΔSkp2^F−box-peptide interaction (Homo sapiens, UniProt P63208); assay: FP-based in vitro competition assay; type: binding; conditions: 200 μM compound, 25 μM Skp1^WT, 500 nM tracer
T1 construct: recombinantly purify intact (Skp1^WT) and truncate (ΔSkp1^1−140; lacking H8-helix) forms of Skp1; His6; made in house; host or cells: Escherichia coli BL21 (DE3)
Experimental: FP measurements were performed using an EnVision multilabel Reader (Perkin Elmer). […] Lyophilized F-box-FAM peptide was initially dissolved in a Tris buffer (20 mM Tris-HCl pH 9.0, 150 mM NaCl, 2 mM DTT), and then a stock solution of 100 μM was prepared by subsequent dilutions in a FP buffer (20 mM Tris-HCl pH 8.0, 150 mM NaCl, 2 mM DTT, 5% (v/v) glycerol, 0.001% (v/v) Triton X-100). Specific controls groups included free F-box-FAM (tracer), bound F-box-FAM in the presence of protein (Skp1^WT or ΔSkp1^1−140), and FP buffer for every measurement, allowing accurate estimation of specific polarization.
The selected subset of compounds were initially assayed at final concentration of 200 μM. The compounds were incubated at room temperature with Skp1^WT for 1 hr, followed by the addition of the tracer. […] After incubation for another 2 hrs, FP signals was measured on an EnVision multilabel Reader. The FP response was measured in quadruplicates with controls including free F-box-FAM (tracer), bound Skp1^WT-F-box-FAM, and FP buffer. The resultant FP values were plotted as bar graphs using ORIGIN Lab software.
For gradient FP assay, protein samples were mixed with an appropriate concentrations of ligand over the range of several folds. […] The IC50 value of the compound in the gradient-concentration assay was determined with nonlinear regression and fitting using the following equation in GraphPad Prism® v6.0 (San Diego, CA). Y = Bottom + (Top – Bottom)/(1 + 10^X−LogIC50). […] In short, the relationship between the IC50 of the inhibitor and the Ki of the inhibitor depends on the KD of the fluorescent ligand and the concentration of the receptor.

T1 sequence (P63208 whole entry, stated change not applied, the tested form may be a part): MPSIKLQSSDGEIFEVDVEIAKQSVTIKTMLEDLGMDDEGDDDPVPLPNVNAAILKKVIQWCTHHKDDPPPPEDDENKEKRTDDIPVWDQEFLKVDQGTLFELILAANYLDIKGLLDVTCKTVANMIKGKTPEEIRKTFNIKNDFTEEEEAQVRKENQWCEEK

SMILES	EC50 (A549 cells) [µM]	inhibition at 200 µM [1] [%]
C/C=C(/C)C(=O)O[C@H]1[C@@H]2[C@H](C)C(=O)O[C@@H]2C[C@@H](C)[C@@H]2C=CC(=O)[C@]21C [6-OAP, Brevilin A, reference compound]	14.1 ± 2.25	–
COc1ccc(-c2cc(-c3cccc(N)c3)ccn2)cc1 [JH-3, 3-(2-(4-Methoxyphenyl)pyridin-4-yl)aniline]	–	> 50
